Measured values reported in the NIST ThermoML archive (doi:10.1016/j.fluid.2016.05.024).
Numbers after ± are expanded uncertainties.

Test: mn = molality of the nth substance listed, in mol/kg
Conditions: 87 kPa, Liquid, Vibrating tube method

CCn1cc[n+](C)c1.O=S(=O)([O-])O [1-ethyl-3-methylimidazolium hydrogen sulfate] + O
mass density [kg/m3]
Conditions | m1 = 0.0528 | m1 = 0.1003 | m1 = 0.1503 | m1 = 0.2034 | m1 = 0.253 | m1 = 0.303 | m1 = 0.3548 | m1 = 0.4046 | m1 = 0.453 | m1 = 0.5055
293.15 K | 1000.86 ± 1 | 1003.08 ± 1 | 1005.3 ± 1 | 1007.57 ± 1 | 1009.63 ± 1 | 1011.67 ± 1 | 1013.72 ± 1 | 1015.68 ± 1 | 1017.53 ± 1 | 1019.54 ± 1
298.15 K | 999.65 ± 1 | 1001.82 ± 1 | 1003.99 ± 1 | 1006.22 ± 1 | 1008.23 ± 1 | 1010.23 ± 1 | 1012.24 ± 1 | 1014.17 ± 1 | 1016 ± 1 | 1017.98 ± 1
303.15 K | 998.2 ± 1 | 1000.33 ± 1 | 1002.46 ± 1 | 1004.64 ± 1 | 1006.63 ± 1 | 1008.6 ± 1 | 1010.58 ± 1 | 1012.47 ± 1 | 1014.26 ± 1 | 1016.21 ± 1
308.15 K | 996.54 ± 1 | 998.63 ± 1 | 1000.73 ± 1 | 1002.87 ± 1 | 1004.82 ± 1 | 1006.76 ± 1 | 1008.7 ± 1 | 1010.58 ± 1 | 1012.34 ± 1 | 1014.25 ± 1
313.15 K | 994.68 ± 1 | 996.73 ± 1 | 998.8 ± 1 | 1000.91 ± 1 | 1002.83 ± 1 | 1004.74 ± 1 | 1006.66 ± 1 | 1008.5 ± 1 | 1010.24 ± 1 | 1012.13 ± 1

CCn1cc[n+](C)c1.[Cl-] [1-ethyl-3-methylimidazolium chloride] + O
mass density [kg/m3]
Conditions | m1 = 0.0532 | m1 = 0.1024 | m1 = 0.1528 | m1 = 0.2049 | m1 = 0.2529 | m1 = 0.3082 | m1 = 0.3571 | m1 = 0.4077 | m1 = 0.459 | m1 = 0.5026
293.15 K | 998.82 ± 1 | 999.41 ± 1 | 1000.01 ± 1 | 1000.63 ± 1 | 1001.2 ± 1 | 1001.84 ± 1 | 1002.41 ± 1 | 1002.99 ± 1 | 1003.56 ± 1 | 1004.05 ± 1
298.15 K | 997.66 ± 1 | 998.23 ± 1 | 998.82 ± 1 | 999.43 ± 1 | 999.98 ± 1 | 1000.61 ± 1 | 1001.17 ± 1 | 1001.73 ± 1 | 1002.29 ± 1 | 1002.77 ± 1
303.15 K | 996.25 ± 1 | 996.81 ± 1 | 997.39 ± 1 | 997.98 ± 1 | 998.52 ± 1 | 999.14 ± 1 | 999.68 ± 1 | 1000.24 ± 1 | 1000.79 ± 1 | 1001.26 ± 1
308.15 K | 994.62 ± 1 | 995.17 ± 1 | 995.74 ± 1 | 996.32 ± 1 | 996.85 ± 1 | 997.46 ± 1 | 997.99 ± 1 | 998.53 ± 1 | 999.08 ± 1 | 999.54 ± 1
313.15 K | 992.79 ± 1 | 993.34 ± 1 | 993.9 ± 1 | 994.48 ± 1 | 995.01 ± 1 | 995.61 ± 1 | 996.13 ± 1 | 996.67 ± 1 | 997.21 ± 1 | 997.67 ± 1
